Measured values: ChEMBL document CHEMBL1201862, “PubChem BioAssay data set” (2004)
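How tested: cells in 96-well plates exposed to compound for 48 hours at five concentrations. Abbreviation: GI50, concentration required for 50% inhibition of growth.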 The source made the active and inactive calls. No stated cut-off is given here; in the data, active = GI50 up to about 1.1 µM and inactive = higher.

Columns and labels:
Test in all cases: NCI anticancer screen, dose series, 48 h
[1] = system: U-251
[2] = system: SNB-19
[3] = system: TK-10
[4] = system: OVCAR-5
[5] = system: SK-OV-3
[6] = system: ACHN
[7] = system: PC-3
[8] = system: MDA-N
[9] = system: HOP-92
[10] = system: COLO 205
[11] = system: SR
[12] = system: Hs-578T
[13] = system: RXF 393
[14] = system: UACC-62
[15] = system: KM-20L2
[16] = system: M14
[17] = system: SNB-75
[18] = system: CCRF-CEM
[19] = system: SK-MEL-2
[20] = system: OVCAR-3

Measured: GI50

COc1ccc(N2C(=O)/C(=C/c3ccc(N(CCC#N)CCC#N)cc3C)N=C2c2cc([N+](=O)[O-])ccc2Cl)cc1
inactive: [1] 4.42 µM | [2] 8.13 µM | [3] 21.6 µM | [4] 25.4 µM | [5] 4.54 µM | [6] 22.6 µM | [7] 4.7 µM | [8] 1.56 µM | [9] > 31.7 µM | [10] 4.34 µM | [11] 3.24 µM | [12] 1.54 µM | [13] 4.61 µM | [14] 5.27 µM | [15] 2.31 µM | [16] 4.67 µM | [17] 3.3 µM | [18] 3.77 µM | [19] 6.15 µM | [20] 3.35 µM
